According to PubChem BioAssay AID248 (DTP/NCI, 2004):
“And” between values parts separate entries of the source, which are not always exact repeats. Identical values can stand only once. Toxic doses and inconclusive results are not listed. No stated cut-off is given here; in the data, active means T/C of 150% or more; inactive means T/C below 125%.

Tested on: L1210 leukemia ip in BDF1 mice, survival T/C
Assay: NCI In Vivo Anticancer Drug Screen. Data for tumor model L1210 Leukemia (intraperitoneal) in B6D2F1 (BDF1) mice
Conditions: endpoint: mean survival time, higher = longer survival
Outline: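 Mice bearing the transplanted tumor received compound or vehicle. Survival of the treated group was divided by that of the vehicle-treated control group to give the ratio.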

[1] = dose: 50.0 mg/kg/injection, schedule: Q01DX009 (ip), vehicle: Klucel (hydroxypropylcellulose) (HPC)
[2] = dose: 100.0 mg/kg/injection, schedule: Q01DX009 (ip), vehicle: Klucel (hydroxypropylcellulose) (HPC)
[3] = dose: 200.0 mg/kg/injection, schedule: Q01DX009 (ip), vehicle: Klucel (hydroxypropylcellulose) (HPC)
[4] = dose: 100.0 mg/kg/injection, schedule: Q04DX003 (ip), vehicle: other
[5] = dose: 200.0 mg/kg/injection, schedule: Q04DX003 (ip), vehicle: other
[6] = dose: 400.0 mg/kg/injection, schedule: Q04DX003 (ip), vehicle: other
[7] = dose: 100.0 mg/kg/injection, schedule: Q01DX001 (ip), vehicle: saline with Tween-80
[8] = dose: 200.0 mg/kg/injection, schedule: Q01DX001 (ip), vehicle: saline with Tween-80
[9] = dose: 400.0 mg/kg/injection, schedule: Q01DX001 (ip), vehicle: saline with Tween-80

Measured: T/C

CCCCCCCCCCCCCCCCCC(=O)N/N=C/C=C/c1ccccc1
inactive: [1] 101 % of control | [2] 98 % of control | [3] 101 % of control and 91 % of control | dose: 400.0 mg/kg/injection, schedule: Q01DX009 (ip), vehicle: Klucel (hydroxypropylcellulose) (HPC) 100 % of control

Cc1cc(N(C)C)nc(N(C)C)n1
inactive: dose: 100.0 mg/kg/injection, schedule: Q01DX001 (ip), vehicle: other 93 % of control | [4] 103 % of control | dose: 200.0 mg/kg/injection, schedule: Q01DX001 (ip), vehicle: other 101 % of control | [5] 97 % of control | dose: 250.0 mg/kg/injection, schedule: Q01DX Z (ip), vehicle: methylcellulose (MC) 100 % of control | dose: 375.0 mg/kg/injection, schedule: Q01DX Z (ip), vehicle: methylcellulose (MC) 94 % of control | dose: 400.0 mg/kg/injection, schedule: Q01DX001 (ip), vehicle: other 91 % of control | [6] 102 % of control | dose: 500.0 mg/kg/injection, schedule: Q01DX Z (ip), vehicle: methylcellulose (MC) 96 % of control

Nc1nc2ncc(CNc3ccc(CC(=O)NC(CCC(=O)O)C(=O)O)cc3)nc2c(=O)[nH]1 (stereo unspecified)
inactive: dose: 75.0 mg/kg/injection, schedule: Q01DX001 (ip), vehicle: saline 103 % of control | dose: 150.0 mg/kg/injection, schedule: Q01DX001 (ip), vehicle: saline 103 % of control

CC(=O)Nc1ccc(/C=N/Nc2c([N+](=O)[O-])cc(C(F)(F)F)cc2[N+](=O)[O-])cc1
inactive: dose: 100.0 mg/kg/injection, schedule: Q01DX009 (ip), vehicle: saline with Tween-80 100 % of control | dose: 200.0 mg/kg/injection, schedule: Q01DX009 (ip), vehicle: saline with Tween-80 96 % of control

Nc1ncnc(N)c1NC(=O)c1ccc(OCc2ccccc2)c(Br)c1
inactive: [7] 93 % of control | [8] 97 % of control | [9] 96 % of control

CCC1/C=C/C=C/CC(C)C(O)C(C)(O)C(=O)C(C)C(O)C(C)C(=O)C(C)C(O)C(C)/C=C/C(=O)OC2C(C)C(CC1)OC1(OC(CC(C)O)C(C)CC1=O)C2C (stereo unspecified) (tested in a mixture with another compound)
inactive: dose: 0.08 mg/kg/injection, schedule: Q01DX009 (ip), vehicle: saline 102 % of control | dose: 0.16 mg/kg/injection, schedule: Q01DX009 (ip), vehicle: saline 103 % of control | dose: 0.16 mg/kg/injection, schedule: Q04DX003 (ip), vehicle: saline 117 % of control | dose: 0.31 mg/kg/injection, schedule: Q01DX009 (ip), vehicle: saline 102 % of control | dose: 0.32 mg/kg/injection, schedule: Q01DX001 (ip), vehicle: saline 118 % of control | dose: 0.32 mg/kg/injection, schedule: Q01DX009 (ip), vehicle: saline 113 % of control | dose: 0.32 mg/kg/injection, schedule: Q04DX003 (ip), vehicle: saline 117 % of control | dose: 0.44 mg/kg/injection, schedule: Q01DX Z (ip), vehicle: other 114 % of control | dose: 0.44 mg/kg/injection, schedule: Q01DX Z (ip), vehicle: saline 100 % of control | dose: 0.47 mg/kg/injection, schedule: Q01DX009 (ip), vehicle: saline with Tween-80 120 % of control | dose: 0.47 mg/kg/injection, schedule: Q01DX009 (ip), vehicle: saline 101 % of control | dose: 0.63 mg/kg/injection, schedule: Q01DX009 (ip), vehicle: saline 104 % of control | dose: 0.66 mg/kg/injection, schedule: Q01DX Z (ip), vehicle: other 122 % of control | dose: 0.66 mg/kg/injection, schedule: Q01DX Z (ip), vehicle: saline 96 % of control | dose: 0.7 mg/kg/injection, schedule: Q01DX009 (ip), vehicle: saline 102 % of control | dose: 0.8 mg/kg/injection, schedule: Q01DX Z (ip), vehicle: methylcellulose (MC) 110 % of control | dose: 1.0 mg/kg/injection, schedule: Q01DX Z (ip), vehicle: saline 109 % of control and 116 % of control | dose: 1.2 mg/kg/injection, schedule: Q01DX Z (ip), vehicle: methylcellulose (MC) 106 % of control | dose: 1.25 mg/kg/injection, schedule: Q01DX009 (ip), vehicle: saline 102 % of control | dose: 1.5 mg/kg/injection, schedule: Q01DX Z (ip), vehicle: other 115 % of control | dose: 1.5 mg/kg/injection, schedule: Q01DX Z (ip), vehicle: saline 102 % of control and 118 % of control | dose: 1.8 mg/kg/injection, schedule: Q01DX Z (ip), vehicle: methylcellulose (MC) 106 % of control | dose: 2.5 mg/kg/injection, schedule: Q01DX009 (ip), vehicle: saline 96 % of control | dose: 2.6 mg/kg/injection, schedule: Q01DX001 (ip), vehicle: saline 112 % of control | dose: 2.7 mg/kg/injection, schedule: Q01DX Z (ip), vehicle: methylcellulose (MC) 107 % of control | dose: 4.0 mg/kg/injection, schedule: Q01DX001 (ip), vehicle: saline 117 % of control | dose: 4.0 mg/kg/injection, schedule: Q01DX Z (ip), vehicle: methylcellulose (MC) 102 % of control | dose: 5.0 mg/kg/injection, schedule: Q01DX009 (ip), vehicle: saline 110 % of control | dose: 6.0 mg/kg/injection, schedule: Q01DX001 (ip), vehicle: saline 123 % of control | dose: 8.0 mg/kg/injection, schedule: Q01DX Z (ip), vehicle: methylcellulose (MC) 92 % of control | dose: 10.0 mg/kg/injection, schedule: Q01DX009 (ip), vehicle: saline 124 % of control

CCOC(=O)C(O)c1ccc[nH]1 (stereo unspecified)
inactive: [7] 115 % of control | dose: 100.0 mg/kg/injection, schedule: Q04DX003 (ip), vehicle: saline with Tween-80 89 % of control | [8] 115 % of control | [9] 111 % of control | dose: 400.0 mg/kg/injection, schedule: Q04DX003 (ip), vehicle: saline with Tween-80 95 % of control

CCCCCCCCC(CCCCCCCC)C1CCCCC1
inactive: [7] 98 % of control | [8] 95 % of control | [9] 93 % of control

CC1CC(=O)Oc2cc(O)c(O)cc21 (stereo unspecified)
inactive: dose: 100.0 mg/kg/injection, schedule: Q01DX001 (ip), vehicle: saline 101 % of control | dose: 200.0 mg/kg/injection, schedule: Q01DX001 (ip), vehicle: saline 95 % of control | dose: 400.0 mg/kg/injection, schedule: Q01DX001 (ip), vehicle: saline 95 % of control

CCCCOC(=O)c1ccc(OC(=O)Nc2ccc([N+](=O)[O-])cc2OC)cc1
inactive: dose: 50.0 mg/kg/injection, schedule: Q01DX001 (ip), vehicle: Klucel (hydroxypropylcellulose) (HPC) 93 % of control | [1] 96 % of control | dose: 50.0 mg/kg/injection, schedule: Q01DX009 (ip), vehicle: other 101 % of control | dose: 50.0 mg/kg/injection, schedule: Q04DX002 (ip), vehicle: Klucel (hydroxypropylcellulose) (HPC) 97 % of control | dose: 50.0 mg/kg/injection, schedule: Q04DX003 (ip), vehicle: other 98 % of control | dose: 100.0 mg/kg/injection, schedule: Q01DX001 (ip), vehicle: Klucel (hydroxypropylcellulose) (HPC) 93 % of control | [2] 96 % of control | dose: 100.0 mg/kg/injection, schedule: Q01DX009 (ip), vehicle: other 105 % of control | dose: 100.0 mg/kg/injection, schedule: Q04DX002 (ip), vehicle: Klucel (hydroxypropylcellulose) (HPC) 94 % of control | [4] 109 % of control | dose: 200.0 mg/kg/injection, schedule: Q01DX001 (ip), vehicle: Klucel (hydroxypropylcellulose) (HPC) 92 % of control | [3] 122 % of control | dose: 200.0 mg/kg/injection, schedule: Q01DX009 (ip), vehicle: other 102 % of control | dose: 200.0 mg/kg/injection, schedule: Q04DX002 (ip), vehicle: Klucel (hydroxypropylcellulose) (HPC) 97 % of control | [5] 101 % of control | dose: 400.0 mg/kg/injection, schedule: Q01DX001 (ip), vehicle: Klucel (hydroxypropylcellulose) (HPC) 101 % of control | dose: 400.0 mg/kg/injection, schedule: Q04DX002 (ip), vehicle: Klucel (hydroxypropylcellulose) (HPC) 100 % of control | [6] 97 % of control

Clc1ccccc1Nc1ccnc(SCc2ccccc2)n1
inactive: dose: 25.0 mg/kg/injection, schedule: Q01DX001 (ip), vehicle: DMSO 93 % of control | dose: 25.0 mg/kg/injection, schedule: Q04DX003 (ip), vehicle: DMSO 96 % of control | dose: 50.0 mg/kg/injection, schedule: Q01DX001 (ip), vehicle: DMSO 100 % of control | dose: 50.0 mg/kg/injection, schedule: Q04DX003 (ip), vehicle: DMSO 95 % of control | dose: 100.0 mg/kg/injection, schedule: Q01DX001 (ip), vehicle: DMSO 88 % of control and 92 % of control | dose: 100.0 mg/kg/injection, schedule: Q04DX003 (ip), vehicle: DMSO 93 % of control
